Test results published in US20170343549A9, “METHODS FOR DETECTING AND MONITORING COLORECTAL CANCER” (REGENTS OF THE UNIVERSITY OF MINNESOTA, priority 2015, published 2017).
“Also recorded” adds a separate entry of the source.

What was measured:
Format in all cases: in vivo, human
circulating TXA2 = assay: Circulating TXA2 level in FAP patients, regular aspirin users vs nonusers (plasma enzyme immunoassay); details: regular aspirin use (two or more 325 mg tablets per week, n=14) vs nonusers (n=24), FIG. 4A
Protocol: (§1) All clinical studies using human subjects or human materials were approved by the Mayo Clinic review board. Volunteers were recruited by the Gastroenterology and Hepatology group at Mayo Clinic, Rochester, Minn. Individuals in the healthy control group (n=16) were normal patients who underwent colonoscopy screening. Familial adenomatous polyposis (FAP) patients who reported taking two or more standard (325 mg) aspirin tablets per week were classified as regular aspirin users (n=14) and those reporting consumption of less aspirin were classified as aspirin nonusers (n=24) (Chan et al., 2007. N Engl J Med 356 (21):2131-2142). Individuals in the sporadic colorectal cancer group (n=20) were patients who were diagnosed with colorectal cancer, but without a family history of colorectal cancer. Other inclusion criteria were as follows: age at 18-75 years old; gender ratio approximately 1:1; and a non-smoking history. The measurement of PGs in plasma from patients was performed using enzyme immunoassay kits from Cayman Chemical Co. (Ann Arbor, Mich.) following the manufacturer's instructions. Briefly, blood was collected from a vein in the arm just inside the elbow using a 22 gauge needle. Before blood collection, the tourniquet was applied about three inches above the selected puncture site. […]

TBXAS1 = assay: Immunohistochemistry staining of TBXAS1 in polyps of FAP patients, aspirin users vs nonusers; details: epithelial cells from polyps, aspirin intake, FIG. 4B
Protocol: (§2) All clinical studies using human subjects or human materials were approved by the Mayo Clinic review board. Volunteers were recruited by the Gastroenterology and Hepatology group at Mayo Clinic, Rochester, Minn. Individuals in the healthy control group (n=16) were normal patients who underwent colonoscopy screening. Familial adenomatous polyposis (FAP) patients who reported taking two or more standard (325 mg) aspirin tablets per week were classified as regular aspirin users (n=14) and those reporting consumption of less aspirin were classified as aspirin nonusers (n=24) (Chan et al., 2007. N Engl J Med 356 (21):2131-2142). Individuals in the sporadic colorectal cancer group (n=20) were patients who were diagnosed with colorectal cancer, but without a family history of colorectal cancer. Other inclusion criteria were as follows: age at 18-75 years old; gender ratio approximately 1:1; and a non-smoking history.
(§3) Surgically resected human colon tissues at all clinical stages were fixed in 10% formalin overnight at room temperature. […] Immunohistochemistry staining intensity was quantified by calculating the integrated optical density (IOD, sum) of area of interest using the Image Pro-Plus 7.0 software program (Media Cybernetics, Inc., Rockville, Md.).

Ki-67 = assay: Immunohistochemistry staining of Ki-67 in polyps of FAP patients, aspirin users vs nonusers; details: epithelial cells from polyps, aspirin intake, FIG. 4B
Protocol: as §2, §3

the other four PGs = assay: Circulating levels of the other four PGs in FAP patients, regular aspirin users vs nonusers (plasma enzyme immunoassay); details: regular aspirin use vs nonusers, FIG. 4A
Protocol: as §1

TBXA2R = assay: Immunohistochemistry staining of TBXA2R in polyps of FAP patients, aspirin users vs nonusers; details: epithelial cells from polyps, aspirin intake, FIG. 4B
Protocol: as §2, §3

Compound: CC(=O)Oc1ccccc1C(=O)O [aspirin]
- circulating TXA2 level (circulating TXA2): significant (p<0.001) decrease; also recorded: significantly decreased
- expression of TBXAS1 (TBXAS1): lower expression
- expression of Ki-67 (Ki-67): lower expression
- levels of the other four PGs (the other four PGs): little effect
- expression of TBXA2R (TBXA2R): lower expression
